Like-named read-outs stand apart in the source and are kept apart here.
Tests used:
[1] = pKa determination by CE-pH titration; format: physicochemical; conditions: 25 mM Na2HPO4 / 25 mM Na2B4O7 buffers, pH 7–10, 25 °C
Source text: CE is a widely used technique for the analysis of charged compounds; thus, the acid-base properties and the pKa of the analyte are crucial in CE method development. Furthermore, the protonation state of compounds has a decisive influence on both their behavior in the body and their affinity for CDs. […] However, it has the disadvantage that its reproducibility is less than that of conventional pH potentiometry; thus, the results of CE-pH titration should be confirmed by independent method (potentiometry, NMR-pH titration).
In order to determine the pKa of the five cathinone analogs, CE-pH titration was applied, in which the purpose was to register the effective mobility changes as a function of pH. As the five tested compounds contain secondary or tertiary amino groups, the pH range tested was pH 7–10, applying Na2HPO4 -Na2B4O7 buffers, where the appropriate pH was adjusted with hydrochloric acid. At a given pH, the mobility is determined by the sum of the mobility of the protonated and deprotonated forms:(1) μpH=μLxL+μHLxHL=μL+μHLKH^+/1+KH^+ where the μpH is the mobility of the compound at the given pH; μL and μHL are the mobilities of the deprotonated and protonated forms, respectively; xL and xHL are the mole fractions of the deprotonated and protonated forms, respectively; and K is the protonation constant. Plotting the μpH data against pH gives the titration curves from which the protonation constant can be calculated according to Equation (1).

[2] = pKa determination by potentiometry; format: physicochemical; conditions: aqueous solution; I = 0.15 M KCl, 25.0 °C
Description: The protonation constants were confirmed by potentiometry using a GLpKa instrument (Sirius, Forest Row, UK) equipped with a combination Ag/AgCl pH electrode. The four-parameter technique (Four PlusTM method) was used for electrode calibration. The titrations were carried out at constant ionic strength (I = 0.15 M KCl) and temperature (T = 25.0 ± 0.5 °C) under a nitrogen atmosphere. An amount of 10 ml of a ~1 mM aqueous solution of the analytes (4-MEC, MDPV) was pre-acidified to pH 2.0 with 0.5 M HCl and then titrated with 0.5 M KOH to pH 12.2. Three parallel measurements were carried out. The pKa values were calculated using the RefinementProTM software (Sirius, Forest Row, UK).

[3] = CE-pH titration; cited from earlier work
[4] = Affinity capillary electrophoresis (ACE), pH 7.4; conditions: 30 mM phosphate buffer pH 7.4, 25 °C, 15 kV
In short: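 Mobility-shift ACE of cathinone analogues with cyclodextrins (0.25–20 mM in BGE) in 30 mM phosphate pH 7.4, 25 °C, fused-silica capillary, 15 kV, UV 215 nm, DMSO as EOF marker. Mobilities obtained by HVL peak fitting; complex stability constants corrected for viscosity and ionic strength.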

[5] = Affinity capillary electrophoresis (ACE), pH 4.5; conditions: 20 mM acetate buffer pH 4.5, 25C, 15 kV
Source text: The simplest way to determine the mobility is from the migration times (tmax) read from the electropherograms from which the apparent mobility could be calculated, but more accurate mobility values could be obtained by the determination with the Haarhoff–van der Linde (HVL) function based on Equation (2). (2) HVLδ(t;a0,a1,a2,a3δ)=a0/a2a3δ2πexp[−1/2(t−a1/a2)^2]/1/exp(a3δ)−1+1/2[1+erf(t−a1/2a2)] where a0 is the area of the HVL function, a1 is the position of the Gaussian component, a2 is the standard deviation of the Gaussian component, and a3δ is the peak shape distortion. The application of the HVL function is necessary in the case of accurate ACE measurements because, in several cases, the peaks are distorted due to the complex formation, which makes reading the migration times and calculating the mobility more difficult and imprecise.
The most popular technique for quantifying the analyte–ligand interaction with CE is mobility shift ACE. This technique involves varying the background electrolyte’s ligand concentrations while introducing a constant volume of the analyte and an EOF marker into the capillary. The analyte–ligand equilibrium is assumed to happen before the separation is complete, requiring fast complex formation kinetics. Typical ligand concentrations are 1–2 orders of magnitude greater than the analyte. The following equation describes the observed mobility as a function of the interaction with the following analyte ligand:(3) μ=μfff+μcfc where μ is the observed mobility, μf and μc are the electrophoretic mobility of the free and complexed analyte, and ff and fc are the free and ligand-bound fractions of the analyte.
Assuming a 1:1 binding stoichiometry, the effective mobility (μeff, calculated by correcting with the EOF marker mobility) can be expressed as (4) μeff=μfK+μc[L]/K+[L] where K is the equilibrium dissociation constant and [L] is the ligand concentration. The apparent complex stability constant (K) can be calculated using several methods, e.g., the X-reciprocal method with linear fitting, but non-linear curve fitting based on Equation (4) is more accurate. A hyperbolic growing or decline curve is obtained, and K could be determined by plotting the effective mobility as a function of the [L] (e.g., CD concentration) in the background electrolyte. The CEval software enables faster and simpler evaluation of electropherograms and further data processing to determine the stability constants of complexes with a 1:1 stoichiometric ratio [27].
During the ACE measurement series, the CD concentration is increased whilst injecting a constant amount of the cathinone derivatives and the EOF marker DMSO. The complex stability calculations were conducted with the CEval program applying the HVL function to eliminate the effect of electromigration dispersion on migration time for exact mobility and, thus complex stability constant determination. Viscosity correction and ionic strength correction were applied. […]

## CCNC(C)C(=O)c1ccc(C)cc1 (racemic) [4-MEC, (±)-2-(ethylamino)-1-(4-methylphenyl)propan-1-one]
[1]
  pKa: 8.81 ± 0.02
[2]
  pKa: 8.85 ± 0.04

## CCC(NC)C(=O)c1ccc2c(c1)OCO2 (racemic) [Butylone, (±)-1-(1,3-benzodioxol-5-yl)-2-(methylamino)-butan-1-one]
[1]
  pKa: 8.64 ± 0.01

## CNC(C)C(=O)c1ccc(F)cc1 (racemic) [Flephedrone, (±)-1-(4-fluorophenyl)-2-(methylamino)propan-1-one]
[1]
  pKa: 8.56 ± 0.01

## CCCC(C(=O)c1ccc2c(c1)OCO2)N1CCCC1 (racemic) [MDPV, (±)-1-(benzo[d]-[1, 3]-dioxol-5-yl)-2-(pyrrolidin-1-yl)pentan-1-one]
[1]
  pKa: 9 ± 0.02
[2]
  pKa: 9.05 ± 0.04
[3]
  pKa: 9.13

## CNC(C)C(=O)c1ccc(C)cc1 (racemic) [Mephedrone, (±)-2-(methylamino)-1-(4-methylphenyl)propan-1-one]
[1]
  pKa: 8.61 ± 0.01
[3]
  pKa: 8.82

## CC(=O)O[C@@H]1[C@@H](OC(C)=O)[C@H]2O[C@H]3[C@H](OC(C)=O)[C@@H](OC(C)=O)[C@@H](O[C@H]4[C@H](OC(C)=O)[C@@H](OC(C)=O)[C@@H](O[C@H]5[C@H](OC(C)=O)[C@@H](OC(C)=O)[C@@H](O[C@H]6[C@H](OC(C)=O)[C@@H](OC(C)=O)[C@@H](O[C@H]7[C@H](OC(C)=O)[C@@H](OC(C)=O)[C@@H](O[C@H]8[C@H](OC(C)=O)[C@@H](OC(C)=O)[C@@H](O[C@@H]1[C@@H](COS(=O)(=O)O)O2)O[C@@H]8COS(=O)(=O)O)O[C@@H]7COS(=O)(=O)O)O[C@@H]6COS(=O)(=O)O)O[C@@H]5COS(=O)(=O)O)O[C@@H]4COS(=O)(=O)O)O[C@@H]3COS(=O)(=O)O [HDAS-β-CD, heptakis-(2,3-O-diacethyl, 6-O-sulfo)-β-CD]
[4]
  4-MEC–CD complex stability constant, Kstab2 (second migrating enantiomer): 830 ± 45 M⁻¹
  4-MEC–CD complex stability constant, Kstab/Kstab1 (unresolved or first migrating enantiomer): 560 ± 40 M⁻¹
  Butylone–CD complex stability constant, Kstab/Kstab1 (unresolved or first migrating enantiomer): 725 ± 20 M⁻¹
  Flephedrone–CD complex stability constant, Kstab2 (second migrating enantiomer): 360 ± 75 M⁻¹
  Flephedrone–CD complex stability constant, Kstab/Kstab1 (unresolved or first migrating enantiomer): 110 ± 37 M⁻¹
  MDPV–CD complex stability constant, Kstab2 (second migrating enantiomer): 340 ± 30 M⁻¹
  MDPV–CD complex stability constant, Kstab/Kstab1 (unresolved or first migrating enantiomer): 360 ± 55 M⁻¹
  Mephedrone–CD complex stability constant, Kstab2 (second migrating enantiomer): 730 ± 40 M⁻¹
  Mephedrone–CD complex stability constant, Kstab/Kstab1 (unresolved or first migrating enantiomer): 450 ± 60 M⁻¹
[5]
  Flephedrone–CD complex stability constant Kstab1 (first migrating enantiomer): 470 ± 40 M⁻¹
  Flephedrone–CD complex stability constant, Kstab2 (second migrating enantiomer): 660 ± 55 M⁻¹
  MDPV–CD complex stability constant Kstab1 (first migrating enantiomer): 800 ± 50 M⁻¹
  MDPV–CD complex stability constant, Kstab2 (second migrating enantiomer): 960 ± 80 M⁻¹

## CO[C@@H]1[C@@H](OC)[C@H]2O[C@H]3[C@H](OC)[C@@H](OC)[C@@H](O[C@H]4[C@H](OC)[C@@H](OC)[C@@H](O[C@H]5[C@H](OC)[C@@H](OC)[C@@H](O[C@H]6[C@H](OC)[C@@H](OC)[C@@H](O[C@H]7[C@H](OC)[C@@H](OC)[C@@H](O[C@H]8[C@H](OC)[C@@H](OC)[C@@H](O[C@@H]1[C@@H](COS(=O)(=O)O)O2)O[C@@H]8COS(=O)(=O)O)O[C@@H]7COS(=O)(=O)O)O[C@@H]6COS(=O)(=O)O)O[C@@H]5COS(=O)(=O)O)O[C@@H]4COS(=O)(=O)O)O[C@@H]3COS(=O)(=O)O [HDMS-β-CD, heptakis-(2,3-O-dimethyl, 6-O-sulfo)-β-CD]
[4]
  MDPV–CD complex stability constant, Kstab/Kstab1 (unresolved or first migrating enantiomer): 915 ± 265 M⁻¹
[5]
  4-MEC–CD complex stability constant Kstab1 (first migrating enantiomer): 170 ± 15 M⁻¹
  4-MEC–CD complex stability constant, Kstab2 (second migrating enantiomer): 190 ± 15 M⁻¹
  Butylone–CD complex stability constant Kstab1 (first migrating enantiomer): 150 ± 10 M⁻¹
  Butylone–CD complex stability constant, Kstab2 (second migrating enantiomer): 180 ± 12 M⁻¹
  Flephedrone–CD complex stability constant Kstab1 (first migrating enantiomer): 250 ± 7 M⁻¹
  Flephedrone–CD complex stability constant, Kstab2 (second migrating enantiomer): 235 ± 20 M⁻¹
  MDPV–CD complex stability constant Kstab1 (first migrating enantiomer): 160 ± 15 M⁻¹
  MDPV–CD complex stability constant, Kstab2 (second migrating enantiomer): 175 ± 12 M⁻¹
  Mephedrone–CD complex stability constant Kstab1 (first migrating enantiomer): 205 ± 20 M⁻¹
  Mephedrone–CD complex stability constant, Kstab2 (second migrating enantiomer): 205 ± 15 M⁻¹

## O=S(=O)(O)OC[C@H]1O[C@@H]2O[C@H]3[C@H](O)[C@@H](O)[C@@H](O[C@H]4[C@H](O)[C@@H](O)[C@@H](O[C@H]5[C@H](O)[C@@H](O)[C@@H](O[C@H]6[C@H](O)[C@@H](O)[C@@H](O[C@H]7[C@H](O)[C@@H](O)[C@@H](O[C@H]8[C@H](O)[C@@H](O)[C@@H](O[C@H]1[C@H](O)[C@H]2O)O[C@@H]8COS(=O)(=O)O)O[C@@H]7COS(=O)(=O)O)O[C@@H]6COS(=O)(=O)O)O[C@@H]5COS(=O)(=O)O)O[C@@H]4COS(=O)(=O)O)O[C@@H]3COS(=O)(=O)O [HS-β-CD, heptakis-(6-O-sulfo)-β-CD]
[4]
  Flephedrone–CD complex stability constant, Kstab2 (second migrating enantiomer): 470 ± 65 M⁻¹
  Flephedrone–CD complex stability constant, Kstab/Kstab1 (unresolved or first migrating enantiomer): 580 ± 14 M⁻¹
[5]
  Flephedrone–CD complex stability constant Kstab1 (first migrating enantiomer): 635 ± 35 M⁻¹
  Flephedrone–CD complex stability constant, Kstab2 (second migrating enantiomer): 615 ± 30 M⁻¹
  MDPV–CD complex stability constant Kstab1 (first migrating enantiomer): 500 ± 45 M⁻¹

Reference: paper PMC10893103, “Cyclodextrin-Enabled Enantioselective Complexation Study of Cathinone Analogs” (Molecules, 2024)
